Drawing on ChEMBL document CHEMBL5465560, “Selectivity Literature for EUbOPEN Chemogenomic Library” (2024), this text covers % of inhibition, % of control and % binding for 14 molecules.

Structures are written as SMILES.

In assay [1] the target is Epithelial discoidin domain-containing receptor 1 (Homo sapiens) (UniProt Q08345). As to the kind of experiment: Selectivity interaction (LanthaScreen Eu Kinase Binding Assay) EUB0001632a DDR1. To be noted: at 10 µM.
The test system of assay [2] is Phosphatidylinositol 4,5-bisphosphate 3-kinase catalytic subunit alpha isoform (Homo sapiens), P42336 [E545A]. The note with it: at 10 µM.
Assay [3] has as its target Activin receptor type-2B (Homo sapiens) (UniProt Q13705). To be noted: at 10 µM.
In assay [4] the target is Ribosomal protein S6 kinase alpha-5 (Homo sapiens) (UniProt O75582). As to the kind of experiment: Selectivity interaction (ActivX KiNativ screen (ex vivo kinase selectivity in human PBMCs)) EUB0001619a RPS6KA5. The format is cell-based. The note with it: PBMC, at 1 µM.
Assay [5] deals with Tyrosine-protein kinase receptor UFO (Homo sapiens) (UniProt P30530). Description: Selectivity interaction (KinomeScan (DiscoverX)) EUB0000666a AXL. The note with it: at 10 µM.
Assay [6] deals with Tyrosine-protein kinase Fes/Fps (Homo sapiens) (UniProt P07332). Description: Selectivity interaction (KinomeScan (DiscoverX)) EUB0000607a FES. To be noted: at 10 µM.
Assay [7] addresses Tyrosine-protein kinase Lck (Homo sapiens, UniProt P06239). The note with it: at 10 µM.
For assay [8], the target named is T1, Activin receptor type-1 (Homo sapiens) (UniProt Q04771).
T1 sequence (whole entry): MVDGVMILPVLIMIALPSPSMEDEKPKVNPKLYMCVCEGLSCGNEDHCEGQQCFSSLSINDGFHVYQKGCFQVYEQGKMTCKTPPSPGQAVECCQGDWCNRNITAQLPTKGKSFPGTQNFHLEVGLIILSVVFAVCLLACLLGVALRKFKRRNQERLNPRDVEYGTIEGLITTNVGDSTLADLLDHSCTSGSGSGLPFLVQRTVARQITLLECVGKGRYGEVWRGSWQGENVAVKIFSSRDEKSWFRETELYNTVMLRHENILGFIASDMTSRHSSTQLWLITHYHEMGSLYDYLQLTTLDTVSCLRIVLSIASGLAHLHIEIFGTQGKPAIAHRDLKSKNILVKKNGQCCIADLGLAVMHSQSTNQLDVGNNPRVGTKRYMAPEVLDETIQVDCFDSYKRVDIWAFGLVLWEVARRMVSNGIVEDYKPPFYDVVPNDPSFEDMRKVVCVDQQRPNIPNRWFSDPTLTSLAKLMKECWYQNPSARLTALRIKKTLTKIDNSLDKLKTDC
Description: Selectivity interaction (KinomeScan (DiscoverX)) EUB0000045b ACVR1.

Assay [9] deals with Mitogen-activated protein kinase 14 (Homo sapiens, UniProt Q16539). As to the kind of experiment: Selectivity interaction (Kinase panel (literature)) EUB0001199aCl MAPK14. To be noted: at 1 µM.
Assay [10] has as its target T2, Serine/threonine-protein kinase DCLK2 (Homo sapiens) (UniProt Q8N568).
T2 sequence (whole entry): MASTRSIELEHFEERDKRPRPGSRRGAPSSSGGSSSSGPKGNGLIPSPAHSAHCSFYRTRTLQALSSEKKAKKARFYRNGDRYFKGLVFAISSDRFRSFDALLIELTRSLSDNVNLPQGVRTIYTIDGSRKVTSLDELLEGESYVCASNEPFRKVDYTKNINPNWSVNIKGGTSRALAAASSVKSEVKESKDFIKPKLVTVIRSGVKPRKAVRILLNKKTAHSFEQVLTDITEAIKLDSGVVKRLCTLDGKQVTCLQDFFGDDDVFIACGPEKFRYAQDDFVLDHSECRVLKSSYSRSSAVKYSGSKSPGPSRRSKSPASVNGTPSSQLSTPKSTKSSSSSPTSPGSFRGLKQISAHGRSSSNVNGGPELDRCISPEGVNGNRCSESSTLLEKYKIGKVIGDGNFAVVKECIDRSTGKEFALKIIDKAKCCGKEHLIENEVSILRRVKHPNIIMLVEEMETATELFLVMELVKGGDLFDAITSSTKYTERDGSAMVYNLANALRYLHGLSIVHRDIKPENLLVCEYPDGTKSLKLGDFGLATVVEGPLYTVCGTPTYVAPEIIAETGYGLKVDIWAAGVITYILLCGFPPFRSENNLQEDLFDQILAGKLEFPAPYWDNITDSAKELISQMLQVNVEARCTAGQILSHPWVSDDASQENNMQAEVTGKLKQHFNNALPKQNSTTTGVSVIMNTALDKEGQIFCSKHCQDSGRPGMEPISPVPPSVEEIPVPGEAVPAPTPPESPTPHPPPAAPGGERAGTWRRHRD
As to the kind of experiment: Selectivity interaction (ProQinase) EUB0000171b DCLK2.

For assay [11], the target named is T3, cGMP-dependent protein kinase 1 (Homo sapiens) (UniProt Q13976).
T3 sequence (whole entry): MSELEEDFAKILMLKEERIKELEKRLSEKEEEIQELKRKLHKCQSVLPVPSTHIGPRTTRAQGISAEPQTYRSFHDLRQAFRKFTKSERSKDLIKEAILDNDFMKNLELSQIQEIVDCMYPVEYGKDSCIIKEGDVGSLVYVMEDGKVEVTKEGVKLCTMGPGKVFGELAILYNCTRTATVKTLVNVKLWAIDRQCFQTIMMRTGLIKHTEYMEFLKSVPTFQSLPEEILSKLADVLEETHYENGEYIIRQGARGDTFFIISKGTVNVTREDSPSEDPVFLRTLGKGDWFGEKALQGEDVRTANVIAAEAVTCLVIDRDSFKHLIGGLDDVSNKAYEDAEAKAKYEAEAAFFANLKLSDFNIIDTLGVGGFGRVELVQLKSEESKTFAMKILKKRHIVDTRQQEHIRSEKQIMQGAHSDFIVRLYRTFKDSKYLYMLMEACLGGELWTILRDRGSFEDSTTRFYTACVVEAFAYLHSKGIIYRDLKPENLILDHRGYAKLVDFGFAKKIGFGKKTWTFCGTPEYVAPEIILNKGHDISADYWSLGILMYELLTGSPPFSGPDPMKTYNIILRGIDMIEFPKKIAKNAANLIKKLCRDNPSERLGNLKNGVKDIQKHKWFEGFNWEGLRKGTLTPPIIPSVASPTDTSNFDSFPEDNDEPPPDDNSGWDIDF
Description: Selectivity interaction (ProQinase) EUB0000171b PRKG1.

The target in assay [12] is Vascular endothelial growth factor receptor 1 (Homo sapiens) (UniProt P17948). As to the kind of experiment: Selectivity interaction (KinomeScan (DiscoverX)) EUB0001049a FLT1. The note with it: at 1 µM.
Assay [13] has as its target Angiopoietin-1 receptor (Homo sapiens) (UniProt Q02763). As to the kind of experiment: Selectivity interaction (KinomeScan (DiscoverX)) EUB0000655a TEK. The note with it: at 10 µM.
Assay [14] deals with Tyrosine-protein kinase ABL2 (Homo sapiens, UniProt P42684). As to the kind of experiment: Selectivity interaction (KinomeScan (DiscoverX)) EUB0001079a ABL2. To be noted: at 1 µM.
The target in assay [15] is Mitogen-activated protein kinase 11 (Homo sapiens) (UniProt Q15759). Description: Selectivity interaction (Millipore kinase profiler) EUB0000124b MAPK11. To be noted: at 10 µM.
In assay [16] the target is TGF-beta receptor type-2 (Homo sapiens) (UniProt P37173). As to the kind of experiment: Selectivity interaction (KinomeScan (DiscoverX)) EUB0000229b TGFBR2. The note with it: at 10 µM.

Angiopoietin-1 receptor (Homo sapiens), sequence (Q02763 whole entry): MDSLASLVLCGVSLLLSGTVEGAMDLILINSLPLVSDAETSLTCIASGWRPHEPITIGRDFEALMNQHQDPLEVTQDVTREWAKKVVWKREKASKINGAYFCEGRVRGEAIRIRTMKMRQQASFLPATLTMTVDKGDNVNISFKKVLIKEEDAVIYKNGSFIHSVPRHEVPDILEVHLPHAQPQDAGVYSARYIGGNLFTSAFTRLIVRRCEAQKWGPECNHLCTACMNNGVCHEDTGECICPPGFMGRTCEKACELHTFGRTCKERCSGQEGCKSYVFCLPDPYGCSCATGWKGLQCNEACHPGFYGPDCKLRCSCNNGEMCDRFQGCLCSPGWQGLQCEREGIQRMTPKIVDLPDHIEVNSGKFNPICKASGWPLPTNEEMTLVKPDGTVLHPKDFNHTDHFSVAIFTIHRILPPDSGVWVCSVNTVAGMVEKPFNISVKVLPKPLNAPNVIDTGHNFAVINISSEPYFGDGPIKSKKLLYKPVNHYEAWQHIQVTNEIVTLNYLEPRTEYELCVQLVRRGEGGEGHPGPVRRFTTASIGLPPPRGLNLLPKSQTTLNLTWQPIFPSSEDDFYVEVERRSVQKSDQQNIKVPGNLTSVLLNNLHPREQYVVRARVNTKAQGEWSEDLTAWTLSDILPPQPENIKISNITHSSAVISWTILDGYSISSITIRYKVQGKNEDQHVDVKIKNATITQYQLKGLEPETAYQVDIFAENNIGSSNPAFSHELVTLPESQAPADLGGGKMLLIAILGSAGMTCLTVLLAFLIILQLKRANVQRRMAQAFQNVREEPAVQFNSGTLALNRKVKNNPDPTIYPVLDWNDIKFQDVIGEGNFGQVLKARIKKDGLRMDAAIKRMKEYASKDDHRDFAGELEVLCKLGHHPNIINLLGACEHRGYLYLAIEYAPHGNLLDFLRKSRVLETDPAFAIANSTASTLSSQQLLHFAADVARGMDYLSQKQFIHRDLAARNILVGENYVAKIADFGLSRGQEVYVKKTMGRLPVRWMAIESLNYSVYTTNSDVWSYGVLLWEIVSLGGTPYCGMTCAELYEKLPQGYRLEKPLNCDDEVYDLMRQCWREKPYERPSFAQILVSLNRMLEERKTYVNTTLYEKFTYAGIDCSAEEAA
Epithelial discoidin domain-containing receptor 1 (Homo sapiens), sequence (Q08345 whole entry, the tested form may be a part, canonical isoform): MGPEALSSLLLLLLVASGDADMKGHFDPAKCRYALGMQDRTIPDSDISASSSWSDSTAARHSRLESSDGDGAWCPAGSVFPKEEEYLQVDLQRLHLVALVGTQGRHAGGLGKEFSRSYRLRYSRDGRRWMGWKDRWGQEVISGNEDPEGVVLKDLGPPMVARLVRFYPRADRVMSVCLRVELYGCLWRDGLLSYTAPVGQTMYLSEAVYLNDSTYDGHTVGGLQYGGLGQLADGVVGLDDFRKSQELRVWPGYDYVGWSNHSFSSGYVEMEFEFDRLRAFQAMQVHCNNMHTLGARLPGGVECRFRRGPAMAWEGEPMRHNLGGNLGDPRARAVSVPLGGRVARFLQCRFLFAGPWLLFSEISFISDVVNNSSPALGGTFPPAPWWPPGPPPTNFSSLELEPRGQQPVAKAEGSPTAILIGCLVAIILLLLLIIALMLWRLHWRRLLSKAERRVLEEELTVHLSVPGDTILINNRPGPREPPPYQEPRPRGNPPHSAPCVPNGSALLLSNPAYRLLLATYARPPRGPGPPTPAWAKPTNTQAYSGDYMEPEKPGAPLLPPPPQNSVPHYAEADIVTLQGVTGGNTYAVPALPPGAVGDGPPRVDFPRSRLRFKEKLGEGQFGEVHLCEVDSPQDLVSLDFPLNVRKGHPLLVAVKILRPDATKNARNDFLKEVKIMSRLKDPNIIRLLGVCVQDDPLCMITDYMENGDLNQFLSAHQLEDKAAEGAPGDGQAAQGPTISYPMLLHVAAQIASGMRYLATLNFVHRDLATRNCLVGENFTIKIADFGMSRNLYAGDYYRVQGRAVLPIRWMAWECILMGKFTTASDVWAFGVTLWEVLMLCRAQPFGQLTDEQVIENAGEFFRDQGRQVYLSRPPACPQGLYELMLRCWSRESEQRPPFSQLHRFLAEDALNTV
Phosphatidylinositol 4,5-bisphosphate 3-kinase catalytic subunit alpha isoform (Homo sapiens), P42336 [E545A], sequence (P42336 whole entry E545A, canonical isoform): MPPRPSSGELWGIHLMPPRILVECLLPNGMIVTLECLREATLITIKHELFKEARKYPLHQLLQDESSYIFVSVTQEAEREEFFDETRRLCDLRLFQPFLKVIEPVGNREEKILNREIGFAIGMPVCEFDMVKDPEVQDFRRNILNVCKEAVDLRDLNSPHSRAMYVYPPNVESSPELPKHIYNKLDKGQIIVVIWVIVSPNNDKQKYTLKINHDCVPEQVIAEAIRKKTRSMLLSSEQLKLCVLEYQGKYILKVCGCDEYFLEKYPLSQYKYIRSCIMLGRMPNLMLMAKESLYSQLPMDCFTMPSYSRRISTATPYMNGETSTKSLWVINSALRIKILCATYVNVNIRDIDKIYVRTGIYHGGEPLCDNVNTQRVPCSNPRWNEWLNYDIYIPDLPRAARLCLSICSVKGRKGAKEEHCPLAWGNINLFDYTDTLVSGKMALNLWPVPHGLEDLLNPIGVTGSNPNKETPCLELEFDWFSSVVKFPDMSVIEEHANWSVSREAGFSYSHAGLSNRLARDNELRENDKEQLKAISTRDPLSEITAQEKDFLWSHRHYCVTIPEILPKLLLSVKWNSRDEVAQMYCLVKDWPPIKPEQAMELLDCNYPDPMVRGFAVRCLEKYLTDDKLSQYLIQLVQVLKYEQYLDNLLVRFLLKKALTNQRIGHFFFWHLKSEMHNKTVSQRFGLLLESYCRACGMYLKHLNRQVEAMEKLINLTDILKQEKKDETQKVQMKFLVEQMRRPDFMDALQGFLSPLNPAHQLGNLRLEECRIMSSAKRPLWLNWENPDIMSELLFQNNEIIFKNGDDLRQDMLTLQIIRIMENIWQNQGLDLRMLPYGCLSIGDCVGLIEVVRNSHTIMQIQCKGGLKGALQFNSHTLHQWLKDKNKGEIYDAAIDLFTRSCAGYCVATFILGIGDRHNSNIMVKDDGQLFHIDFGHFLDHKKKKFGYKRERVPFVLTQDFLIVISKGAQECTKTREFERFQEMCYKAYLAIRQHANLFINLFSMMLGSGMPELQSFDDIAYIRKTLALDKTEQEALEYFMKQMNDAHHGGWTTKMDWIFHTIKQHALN
Tyrosine-protein kinase receptor UFO (Homo sapiens), sequence (P30530 whole entry): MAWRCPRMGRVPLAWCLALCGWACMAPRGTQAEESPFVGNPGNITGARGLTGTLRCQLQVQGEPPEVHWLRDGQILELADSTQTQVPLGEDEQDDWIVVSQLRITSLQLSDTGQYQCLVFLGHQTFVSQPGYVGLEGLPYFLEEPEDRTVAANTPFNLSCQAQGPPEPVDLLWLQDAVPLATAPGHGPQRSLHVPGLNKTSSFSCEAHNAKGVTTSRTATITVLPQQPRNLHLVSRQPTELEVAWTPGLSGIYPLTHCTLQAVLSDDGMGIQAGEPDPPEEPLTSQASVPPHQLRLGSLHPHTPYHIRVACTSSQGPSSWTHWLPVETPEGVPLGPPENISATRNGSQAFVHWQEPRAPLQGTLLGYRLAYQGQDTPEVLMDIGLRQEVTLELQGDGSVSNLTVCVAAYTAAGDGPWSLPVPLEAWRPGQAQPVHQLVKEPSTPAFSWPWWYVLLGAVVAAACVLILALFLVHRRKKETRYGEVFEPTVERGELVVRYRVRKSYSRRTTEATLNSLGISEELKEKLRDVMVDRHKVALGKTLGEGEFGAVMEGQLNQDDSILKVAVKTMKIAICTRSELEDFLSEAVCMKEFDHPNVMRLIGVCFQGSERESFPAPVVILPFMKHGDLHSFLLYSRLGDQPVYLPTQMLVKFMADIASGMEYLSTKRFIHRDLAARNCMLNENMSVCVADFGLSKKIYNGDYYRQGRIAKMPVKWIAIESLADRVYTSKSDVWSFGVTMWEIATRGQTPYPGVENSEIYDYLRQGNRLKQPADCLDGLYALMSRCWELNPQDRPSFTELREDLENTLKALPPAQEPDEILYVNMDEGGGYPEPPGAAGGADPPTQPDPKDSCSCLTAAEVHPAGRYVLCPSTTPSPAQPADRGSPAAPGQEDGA
Mitogen-activated protein kinase 14, sequence (Q16539 whole entry): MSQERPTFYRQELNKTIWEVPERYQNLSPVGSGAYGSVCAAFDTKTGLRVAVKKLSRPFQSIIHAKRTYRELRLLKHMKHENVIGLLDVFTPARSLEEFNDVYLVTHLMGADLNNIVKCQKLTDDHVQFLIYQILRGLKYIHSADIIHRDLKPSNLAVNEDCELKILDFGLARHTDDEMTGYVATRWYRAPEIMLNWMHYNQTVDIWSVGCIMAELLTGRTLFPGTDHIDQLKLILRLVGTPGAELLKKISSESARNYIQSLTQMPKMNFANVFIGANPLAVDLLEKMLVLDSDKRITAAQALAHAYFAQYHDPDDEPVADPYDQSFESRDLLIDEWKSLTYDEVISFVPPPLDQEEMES
Mitogen-activated protein kinase 11 (Homo sapiens), sequence (Q15759 whole entry): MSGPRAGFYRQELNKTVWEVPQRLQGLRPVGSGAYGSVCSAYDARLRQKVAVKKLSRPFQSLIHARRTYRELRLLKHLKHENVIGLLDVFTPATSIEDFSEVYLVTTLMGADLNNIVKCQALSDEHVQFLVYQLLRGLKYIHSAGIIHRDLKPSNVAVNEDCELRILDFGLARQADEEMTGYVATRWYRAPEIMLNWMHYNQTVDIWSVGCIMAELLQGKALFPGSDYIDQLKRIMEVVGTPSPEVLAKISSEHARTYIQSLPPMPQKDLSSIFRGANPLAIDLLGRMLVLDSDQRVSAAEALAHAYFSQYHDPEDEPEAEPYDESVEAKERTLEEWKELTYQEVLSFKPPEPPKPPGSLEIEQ

With `Cn1cc(-n2cnc3c(NCc4nc5cc(Cl)c(Cl)cc5[nH]4)nc(N4CCOCC4)nc32)cn1`, in [1], the % of inhibition was 0.322%.
Take `COCC(=O)NC/C=C/c1ccc2ncnc(Nc3ccc(Oc4ccc(C)nc4)c(C)c3)c2c1` [CP-724714]: the % of control in assay [2] turned out to be 33%; in assay [3] it was 100%.
For `N#Cc1cccc(-c2c[nH]c3ncnc(N4CCOCC4)c23)c1`, the % of inhibition in assay [4] is 20%.
On to `O=C(NOC[C@H](O)CO)c1ccc(F)c(F)c1Nc1ccc(I)cc1F`, for which, in [5], the % of control was 83%.
For the molecule `CNC(=O)Nc1ccc(-c2nc(N3CC4CCC(C3)O4)c3cnn(C4CCC5(CC4)OCCO5)c3n2)cc1`, the % of control in assay [6] is 100%.
As for `Cc1cc([C@@H](C)Nc2ccccc2C(=O)O)c2nc(N3CCOCC3)cc(=O)n2c1` [AZD-6482], the % of control in [7] was determined as 97%.
For the molecule `C=CC(=O)Nc1cc(-n2c(=O)ccc3cnc4ccc(-c5ccc(NS(C)(=O)=O)cc5)cc4c32)ccc1C`, the % of control is 100% in [8] (at 1 µM) and 59% in assay [8] (at 10 µM).
`CN1Cc2nccc(-c3cn(C)nc3-c3ccc(F)cc3)c2C1=O`: the % of inhibition in assay [9] worked out at 37%.
On to `C=CC(=O)Nc1cccc(C(=O)Nc2ccc(Nc3cc(-c4[nH]c(SC)nc4C)ccn3)cc2)c1`, for which the % of control is 95% in assay [10] (at 1 µM), 94% in assay [10] (at 5 µM), 92% in [11] (at 1 µM) and 87% in [11] (at 5 µM).
Consider `COc1cc(Nc2nc(C)cc(-c3cnn4nc(OC)ccc34)n2)cc(C(F)(F)F)c1`, for which the % of control in assay [12] is 82%.
With `CN(C)CCOc1ccc(-c2nc(-c3ccncc3)c(-c3ccc4c(c3)CC/C4=N\O)[nH]2)cc1`, in assay [13], the % of control is 63%.
Turning to `Nc1cnc(N2CCc3cc(S(=O)(=O)Nc4c(F)cc(Cl)cc4F)cc(N4CCCC4=O)c32)nc1` [TP-020n], the % of control in [14] is 95%.
In turn, `CC(=O)Nc1cccc(-n2c(=O)n(C3CC3)c(=O)c3c(Nc4ccc(I)cc4F)n(C)c(=O)c(C)c32)c1` yielded a % of control in [15] of 104%.
In assay [16], `COc1cc(N(C)c2ccnc3ccc(C(F)(F)F)cc23)cc(OC)c1OC` yielded a % binding of 94%.
